Laboratory results: ChEMBL document CHEMBL1201862, “PubChem BioAssay data set” (2004)
The source made the active and inactive calls.

Key:
[1] = DRD fibroblast viability loss – cell-based, non-viral oncogenic, luminescence, dose response (AID 1934); assay type: functional; settings: Homo sapiens
Vero [2] = assay: cells; assay type: functional, cell-based; settings: Chlorocebus sabaeus
BJ [3] = assay: BJ-TERT fibroblast viability loss – cell-based, RAS-independent, luminescence, dose response (AID 1933); assay type: functional; settings: Homo sapiens
BJ [4] = assay: cells; assay type: functional, cell-based; settings: Homo sapiens
[5] = M. tuberculosis H37Rv growth inhibitors, H37Rv strain (AID 1626); assay type: functional
[6] = molecular target: T1, Endoribonuclease toxin MazF (Escherichia coli K-12, UniProt P0AE70); assay: activation of MazEF endoribonuclease cleavage – biochemical, fluorescence, single-stranded RNA substrate, uHTS hits, dose response (AID 588481); assay type: functional
T1 sequence (P0AE70 whole entry): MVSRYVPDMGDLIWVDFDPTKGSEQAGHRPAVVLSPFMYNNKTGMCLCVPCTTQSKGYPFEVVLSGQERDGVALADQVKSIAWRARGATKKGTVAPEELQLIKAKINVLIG

[7] = molecular target: T1, Endoribonuclease toxin MazF; assay: substrate-only fluorescence increase artefacts – biochemical, single-stranded RNase substrate, counter-screen for MazEF activator project, dose response (AID 588502); assay type: functional
[8] = Luminescence Cell-Based Dose Retest to Confirm Inhibitors of Cancer Stem Cells. [Related pubchem assays (depositor defined):AID2717, AID2721]; assay type: functional; settings: Homo sapiens
[9] = viability of PTEN-deleted HCT116 cells – cell-based, HCT116 PTEN knockout, dose response (AID 1047); assay type: functional;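 also: HCT116 colon tumor cells with PTEN knocked out; cells exposed to compound for 60 hours before readout; potency for loss of cell viability measured by luminescence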
Vero [10] = assay: cells; assay type: functional; settings: Chlorocebus sabaeus
[11] = viability of HCT116 lacking mutant beta-catenin – cell-based, human colon tumor, dose response (AID 1045); assay type: functional;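 also: HCT116 colon tumor cells with beta catenin knocked out; cells exposed to compound for 60 hours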
BJ [12] = assay: BJ-TERT-LT-ST fibroblast viability loss – cell-based, RAS-independent, luminescence, dose response (AID 1935); assay type: functional; settings: Homo sapiens;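 also: BJ fibroblasts immortalized with TERT plus LT and ST oncogenes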
[13] = molecular target: Potassium voltage-gated channel subfamily KQT member 2 (Rattus norvegicus, UniProt O88943, W236L); assay: potentiation of rat KCNQ2 current – cell-based, automated electrophysiology, mechanism study for KCNQ2 potentiator project, dose response (AID 2603); assay type: functional
Potassium voltage-gated channel subfamily KQT member 2, sequence (O88943 whole entry W236L): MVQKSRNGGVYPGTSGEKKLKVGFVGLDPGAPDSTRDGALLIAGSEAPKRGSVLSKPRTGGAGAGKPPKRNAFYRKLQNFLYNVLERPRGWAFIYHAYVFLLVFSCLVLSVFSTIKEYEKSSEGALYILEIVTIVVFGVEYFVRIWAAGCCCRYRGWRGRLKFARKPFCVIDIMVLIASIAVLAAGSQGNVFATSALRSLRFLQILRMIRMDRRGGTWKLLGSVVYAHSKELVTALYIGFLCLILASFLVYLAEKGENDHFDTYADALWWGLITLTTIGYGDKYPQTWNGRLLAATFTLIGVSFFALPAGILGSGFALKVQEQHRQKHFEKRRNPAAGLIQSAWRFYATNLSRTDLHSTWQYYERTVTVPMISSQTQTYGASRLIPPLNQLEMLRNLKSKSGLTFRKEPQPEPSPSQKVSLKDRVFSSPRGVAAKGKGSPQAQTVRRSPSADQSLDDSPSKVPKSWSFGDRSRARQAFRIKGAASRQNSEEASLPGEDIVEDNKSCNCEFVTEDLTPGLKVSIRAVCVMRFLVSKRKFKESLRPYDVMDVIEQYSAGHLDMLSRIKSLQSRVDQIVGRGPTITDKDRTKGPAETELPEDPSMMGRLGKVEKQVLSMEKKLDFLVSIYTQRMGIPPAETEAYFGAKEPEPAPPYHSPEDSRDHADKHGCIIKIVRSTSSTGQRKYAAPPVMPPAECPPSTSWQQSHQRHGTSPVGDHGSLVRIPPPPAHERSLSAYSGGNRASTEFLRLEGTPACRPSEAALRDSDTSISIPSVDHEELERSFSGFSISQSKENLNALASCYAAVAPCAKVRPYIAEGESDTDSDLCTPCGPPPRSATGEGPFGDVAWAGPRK

[14] = reduction of Shn3 3'UTR-driven luciferase in osteoblasts – cell-based, Clone20 osteoblasts, firefly luciferase, cherry-picked, dose response (AID 624132); assay type: functional;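 also: firefly luciferase luminescence from reporter carrying the Shn3 3'UTR in osteoblasts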
[15] = loss of viability in HepG2 cells – cell-based, CellTiter-Glo, cherry-picked, cytotoxicity control for Shn3 inhibitor project, dose response (AID 624134); assay type: functional
[16] = non-specific 3'UTR reporter inhibition in Clone20-Shn3RL – cell-based, Renilla luciferase, cherry-picked, counter-screen for Shn3 inhibitor project, dose response (AID 624133); assay type: functional
[17] = molecular target: T2, Replicative DNA helicase DnaB (Mycobacterium tuberculosis, UniProt P9WMR3); assay: DnaB intein splicing inhibitors, dose response, biochemical, cell-free fluorescence (AID 449749); assay type: functional
T2 sequence (P9WMR3 whole entry): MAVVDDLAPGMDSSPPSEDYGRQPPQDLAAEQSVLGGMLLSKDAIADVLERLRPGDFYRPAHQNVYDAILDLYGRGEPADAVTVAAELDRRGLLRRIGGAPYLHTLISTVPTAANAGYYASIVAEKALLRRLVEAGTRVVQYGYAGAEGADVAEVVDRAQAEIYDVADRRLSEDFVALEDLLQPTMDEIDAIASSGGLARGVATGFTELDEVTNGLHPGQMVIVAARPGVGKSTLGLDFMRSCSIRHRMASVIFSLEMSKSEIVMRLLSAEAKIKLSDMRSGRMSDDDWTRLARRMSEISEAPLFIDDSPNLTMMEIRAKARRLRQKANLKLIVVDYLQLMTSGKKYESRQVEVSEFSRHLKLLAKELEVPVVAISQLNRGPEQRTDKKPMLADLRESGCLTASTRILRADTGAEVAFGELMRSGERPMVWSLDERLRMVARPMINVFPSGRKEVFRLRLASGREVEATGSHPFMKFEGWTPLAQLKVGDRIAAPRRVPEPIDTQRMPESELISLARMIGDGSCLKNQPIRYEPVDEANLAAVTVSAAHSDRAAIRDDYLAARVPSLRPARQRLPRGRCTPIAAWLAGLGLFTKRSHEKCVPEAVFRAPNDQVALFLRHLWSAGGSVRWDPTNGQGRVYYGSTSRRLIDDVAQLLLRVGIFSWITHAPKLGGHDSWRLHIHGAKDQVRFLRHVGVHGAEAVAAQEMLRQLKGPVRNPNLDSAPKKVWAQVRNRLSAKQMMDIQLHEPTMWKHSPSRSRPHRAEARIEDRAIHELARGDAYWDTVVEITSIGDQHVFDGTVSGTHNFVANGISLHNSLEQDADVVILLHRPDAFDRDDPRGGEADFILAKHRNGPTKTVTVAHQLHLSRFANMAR

[18] = molecular target: T3, Hepatocyte nuclear factor 4-alpha (Homo sapiens, UniProt P41235); assay type: functional, cell-based;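 also: biochemical luminescence-based dose-response counterscreen measuring inhibition of HNF4 dimerization, run alongside a screen for blockers of ABHD5–perilipin-5 interaction; split luciferase complementation of HNF4 fusion proteins in cell lysate measuring dimerization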
T3 sequence (P41235 whole entry): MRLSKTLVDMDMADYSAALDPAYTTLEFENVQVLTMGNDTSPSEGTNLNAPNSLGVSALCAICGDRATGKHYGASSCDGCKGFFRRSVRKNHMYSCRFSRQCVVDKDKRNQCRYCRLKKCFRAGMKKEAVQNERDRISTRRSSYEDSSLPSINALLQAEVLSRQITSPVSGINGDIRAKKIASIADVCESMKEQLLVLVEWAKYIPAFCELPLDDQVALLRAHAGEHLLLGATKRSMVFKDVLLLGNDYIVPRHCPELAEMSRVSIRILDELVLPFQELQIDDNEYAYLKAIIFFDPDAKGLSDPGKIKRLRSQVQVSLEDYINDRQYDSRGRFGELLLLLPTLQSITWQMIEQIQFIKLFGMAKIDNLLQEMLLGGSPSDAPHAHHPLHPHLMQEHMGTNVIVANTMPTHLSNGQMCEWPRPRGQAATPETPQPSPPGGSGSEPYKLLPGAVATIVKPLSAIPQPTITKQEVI

Protein RecA = molecular target: T4, Protein RecA (Mycobacterium tuberculosis, UniProt P9WHJ3); assay: Fluorescence Cell-Free Homogeneous Dose Retest to Identify Inhibitors of RecA-Intein Splicing Activity. [Related pubchem assays (depositor defined):AID2097, AID2223, AID489010, AID492950]; assay type: functional
T4 sequence (P9WHJ3 whole entry): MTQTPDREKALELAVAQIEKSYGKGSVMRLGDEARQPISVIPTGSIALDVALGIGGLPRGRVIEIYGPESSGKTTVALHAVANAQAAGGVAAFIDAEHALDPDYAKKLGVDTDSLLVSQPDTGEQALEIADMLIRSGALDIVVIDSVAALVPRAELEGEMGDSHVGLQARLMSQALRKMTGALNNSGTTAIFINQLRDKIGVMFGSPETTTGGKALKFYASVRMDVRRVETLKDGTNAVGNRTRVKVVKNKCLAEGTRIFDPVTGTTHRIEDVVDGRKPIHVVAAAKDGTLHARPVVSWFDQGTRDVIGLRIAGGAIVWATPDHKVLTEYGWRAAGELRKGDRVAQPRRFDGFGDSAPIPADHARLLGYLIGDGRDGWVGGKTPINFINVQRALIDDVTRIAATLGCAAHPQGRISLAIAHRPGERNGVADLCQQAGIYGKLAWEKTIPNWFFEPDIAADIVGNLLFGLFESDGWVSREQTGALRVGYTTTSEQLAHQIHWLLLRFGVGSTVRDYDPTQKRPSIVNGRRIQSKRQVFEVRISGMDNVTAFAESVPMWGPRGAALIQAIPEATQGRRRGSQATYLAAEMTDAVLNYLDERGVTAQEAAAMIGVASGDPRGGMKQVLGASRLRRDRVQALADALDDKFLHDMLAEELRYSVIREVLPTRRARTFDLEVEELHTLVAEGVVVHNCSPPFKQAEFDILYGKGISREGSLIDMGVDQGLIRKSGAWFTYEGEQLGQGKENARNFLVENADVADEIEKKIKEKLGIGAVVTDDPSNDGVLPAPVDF

[19] = molecular target: Serine/threonine-protein phosphatase (Homo sapiens, UniProt Q9BPW0); assay: inhibition of protein phosphatase 5 activity – biochemical, fluorescence, dose response (AID 2395)
Serine/threonine-protein phosphatase, sequence (Q9BPW0 whole entry): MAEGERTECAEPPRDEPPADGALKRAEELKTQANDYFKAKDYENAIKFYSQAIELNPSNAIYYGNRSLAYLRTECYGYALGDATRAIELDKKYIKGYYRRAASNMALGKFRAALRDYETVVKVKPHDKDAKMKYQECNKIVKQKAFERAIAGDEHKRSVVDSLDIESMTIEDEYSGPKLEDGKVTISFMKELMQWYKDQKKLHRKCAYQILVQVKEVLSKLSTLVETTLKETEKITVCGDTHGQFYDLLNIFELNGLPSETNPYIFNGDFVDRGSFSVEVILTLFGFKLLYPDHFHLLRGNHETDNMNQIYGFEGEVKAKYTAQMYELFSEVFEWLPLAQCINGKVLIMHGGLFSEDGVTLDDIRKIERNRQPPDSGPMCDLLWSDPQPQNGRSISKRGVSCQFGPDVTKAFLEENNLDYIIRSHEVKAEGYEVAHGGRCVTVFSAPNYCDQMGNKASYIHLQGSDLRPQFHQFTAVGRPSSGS

[20] = molecular target: Serine/threonine-protein phosphatase PP1-alpha catalytic subunit (Homo sapiens, UniProt P62136); assay: inhibition of protein phosphatase 1 activity – biochemical, fluorescence, dose response (AID 2394)
Serine/threonine-protein phosphatase PP1-alpha catalytic subunit, sequence (P62136 whole entry): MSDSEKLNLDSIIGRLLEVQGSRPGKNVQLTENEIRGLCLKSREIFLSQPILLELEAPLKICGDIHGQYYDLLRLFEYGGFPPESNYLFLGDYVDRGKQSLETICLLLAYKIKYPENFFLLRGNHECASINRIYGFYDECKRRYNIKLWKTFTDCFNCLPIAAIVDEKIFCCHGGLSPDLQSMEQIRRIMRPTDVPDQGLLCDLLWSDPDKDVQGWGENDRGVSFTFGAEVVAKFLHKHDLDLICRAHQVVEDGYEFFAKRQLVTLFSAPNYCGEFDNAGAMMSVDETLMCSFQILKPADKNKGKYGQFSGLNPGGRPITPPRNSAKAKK

[21] = molecular target: T5, Mannose-6-phosphate isomerase (Homo sapiens, UniProt P34949); assay: MPI inhibition at elevated mannose 6-phosphate – biochemical, fluorescence intensity, high mannose 6-phosphate, primary screen (AID 1220)
T5 sequence (P34949 whole entry): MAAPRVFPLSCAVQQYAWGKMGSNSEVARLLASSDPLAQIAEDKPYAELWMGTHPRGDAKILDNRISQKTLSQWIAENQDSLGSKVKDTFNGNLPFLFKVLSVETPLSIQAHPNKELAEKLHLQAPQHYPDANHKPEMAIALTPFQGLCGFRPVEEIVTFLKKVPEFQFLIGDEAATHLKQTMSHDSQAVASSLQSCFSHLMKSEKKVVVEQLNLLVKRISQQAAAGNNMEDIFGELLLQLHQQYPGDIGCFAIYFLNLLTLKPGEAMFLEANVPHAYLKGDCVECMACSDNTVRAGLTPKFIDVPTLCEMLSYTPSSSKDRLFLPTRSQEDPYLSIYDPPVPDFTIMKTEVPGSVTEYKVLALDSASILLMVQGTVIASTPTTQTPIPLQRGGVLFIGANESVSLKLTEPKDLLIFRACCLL

[22] = HPDE-C7 pancreatic duct cell viability loss – fluorescence, HTS (AID 430); assay type: functional, cell-based; settings: Homo sapiens
Nonstructural protein 1 = Nonstructural protein 1 (Influenza A virus, UniProt Q194T2); assay type: functional, Influenza A virus (A/California/07/2009(H1N1))
Nonstructural protein 1, sequence (Q194T2 whole entry): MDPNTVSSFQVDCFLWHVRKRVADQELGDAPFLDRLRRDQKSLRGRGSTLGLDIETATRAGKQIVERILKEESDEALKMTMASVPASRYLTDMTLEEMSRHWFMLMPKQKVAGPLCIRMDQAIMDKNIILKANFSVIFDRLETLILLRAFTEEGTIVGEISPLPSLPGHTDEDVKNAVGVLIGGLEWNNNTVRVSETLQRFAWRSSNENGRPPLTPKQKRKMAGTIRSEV

[23] = molecular target: T5, Mannose-6-phosphate isomerase; assay: MPI enzyme activity inhibition – biochemical, fluorescence intensity, coupled assay, primary screen (AID 1209)
[24] = viability loss of HPDE-C7K cells – cell-based, fluorescence, HTS, primary screen (AID 431); assay type: functional; settings: Homo sapiens
Genome polyprotein = Genome polyprotein (dengue virus type 2, UniProt P29990); assay: flavivirus cap methylation enzyme inhibition – biochemical, confirmation dose response, primary screen (AID 588689); assay type: functional
Genome polyprotein, sequence (P29990 2492-3391 limits assumed): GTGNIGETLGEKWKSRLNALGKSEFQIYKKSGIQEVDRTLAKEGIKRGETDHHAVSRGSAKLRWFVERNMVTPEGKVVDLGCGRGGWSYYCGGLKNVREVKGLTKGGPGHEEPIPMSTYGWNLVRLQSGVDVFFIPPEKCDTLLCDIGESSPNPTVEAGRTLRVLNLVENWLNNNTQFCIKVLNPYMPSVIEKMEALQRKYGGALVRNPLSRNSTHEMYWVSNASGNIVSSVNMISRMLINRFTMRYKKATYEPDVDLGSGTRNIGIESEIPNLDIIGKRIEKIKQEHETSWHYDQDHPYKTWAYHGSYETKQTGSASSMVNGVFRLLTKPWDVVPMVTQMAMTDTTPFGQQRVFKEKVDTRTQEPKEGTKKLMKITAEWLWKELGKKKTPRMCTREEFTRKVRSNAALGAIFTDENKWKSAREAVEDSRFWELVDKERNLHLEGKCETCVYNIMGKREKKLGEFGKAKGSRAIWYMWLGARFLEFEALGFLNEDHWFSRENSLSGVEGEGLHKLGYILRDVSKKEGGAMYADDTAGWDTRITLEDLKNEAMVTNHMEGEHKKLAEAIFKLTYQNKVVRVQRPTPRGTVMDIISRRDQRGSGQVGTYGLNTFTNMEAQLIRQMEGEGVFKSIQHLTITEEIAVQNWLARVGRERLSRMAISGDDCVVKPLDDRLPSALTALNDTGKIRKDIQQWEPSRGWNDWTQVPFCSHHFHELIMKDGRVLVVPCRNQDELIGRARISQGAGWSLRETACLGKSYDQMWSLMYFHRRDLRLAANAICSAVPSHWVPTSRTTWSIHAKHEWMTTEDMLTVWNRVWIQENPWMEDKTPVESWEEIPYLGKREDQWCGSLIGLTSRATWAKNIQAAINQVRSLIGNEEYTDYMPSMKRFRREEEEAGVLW

[25] = molecular target: Sphingosine 1-phosphate receptor 2 (Homo sapiens, UniProt O95136); assay: Dose Response Cell Based Assay for Agonists of the S1P2 Receptor of Purchased Analogues. [Related pubchem assays: 729, 843, 854, 736 ]; assay type: functional
Sphingosine 1-phosphate receptor 2, sequence (O95136 whole entry): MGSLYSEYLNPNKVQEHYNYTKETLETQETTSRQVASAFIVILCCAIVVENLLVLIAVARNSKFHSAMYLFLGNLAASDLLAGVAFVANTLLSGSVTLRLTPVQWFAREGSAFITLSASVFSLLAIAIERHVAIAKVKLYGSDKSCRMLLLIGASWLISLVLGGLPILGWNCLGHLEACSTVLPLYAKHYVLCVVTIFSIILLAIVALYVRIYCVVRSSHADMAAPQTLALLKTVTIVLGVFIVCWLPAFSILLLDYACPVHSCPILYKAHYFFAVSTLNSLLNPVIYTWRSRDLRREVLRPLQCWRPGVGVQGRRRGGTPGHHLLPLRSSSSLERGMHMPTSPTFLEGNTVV

[26] = Luminescence-based dose response cell-based high throughput screening assay for cytotoxic compounds using the IEC-6 intestinal epithelial cell line. [Related pubchem assays: 1858 (Summary AID.), 1825 (Counterscreen.), 1907 (Confirmation screen.)]; assay type: functional
[27] = molecular target: T6, Ubiquitin-conjugating enzyme E2 N (Homo sapiens, UniProt P61088); assay type: functional;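 also: Dose-response confirmation in a TR-FRET assay detecting UBC13-driven polyubiquitin chain formation, inhibition measured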
T6 sequence (P61088 whole entry): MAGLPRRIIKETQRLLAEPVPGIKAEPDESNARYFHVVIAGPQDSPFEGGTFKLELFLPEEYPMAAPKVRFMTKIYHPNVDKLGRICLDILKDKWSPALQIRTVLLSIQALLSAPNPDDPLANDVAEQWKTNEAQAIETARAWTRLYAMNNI

[28] = molecular target: Transitional endoplasmic reticulum ATPase (Homo sapiens, UniProt P55072); assay: Luminescence dose response biochemical high throughput screening assay for inhibitors of the p97 ATPase: synthesized compounds. [Related pubchem assays: 1481, 1517 ]
Transitional endoplasmic reticulum ATPase (Homo sapiens, UniProt P55072), sequence (P55072 whole entry): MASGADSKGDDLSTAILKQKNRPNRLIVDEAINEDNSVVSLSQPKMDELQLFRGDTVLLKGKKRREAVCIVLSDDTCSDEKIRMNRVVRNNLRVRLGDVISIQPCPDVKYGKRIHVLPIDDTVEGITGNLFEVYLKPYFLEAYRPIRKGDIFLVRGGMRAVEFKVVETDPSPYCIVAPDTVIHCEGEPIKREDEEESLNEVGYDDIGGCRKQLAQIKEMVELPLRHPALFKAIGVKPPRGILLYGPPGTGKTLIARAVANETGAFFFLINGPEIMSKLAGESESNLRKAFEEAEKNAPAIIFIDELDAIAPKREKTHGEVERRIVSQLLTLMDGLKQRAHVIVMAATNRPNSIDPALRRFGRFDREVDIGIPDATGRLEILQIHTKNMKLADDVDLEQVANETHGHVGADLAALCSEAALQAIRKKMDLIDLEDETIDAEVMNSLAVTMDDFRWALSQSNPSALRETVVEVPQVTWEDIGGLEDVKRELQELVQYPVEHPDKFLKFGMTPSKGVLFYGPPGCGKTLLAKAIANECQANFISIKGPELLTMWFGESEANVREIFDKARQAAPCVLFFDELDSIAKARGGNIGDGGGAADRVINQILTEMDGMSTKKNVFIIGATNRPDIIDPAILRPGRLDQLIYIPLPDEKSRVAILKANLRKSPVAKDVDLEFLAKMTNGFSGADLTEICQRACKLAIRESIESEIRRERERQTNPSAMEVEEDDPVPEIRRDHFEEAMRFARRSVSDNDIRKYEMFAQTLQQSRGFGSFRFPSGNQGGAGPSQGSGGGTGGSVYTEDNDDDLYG

[29] = molecular target: Transitional endoplasmic reticulum ATPase (Homo sapiens, UniProt P55072, C522A); assay: Luminescence counterscreen assay for p97 inhibitors: dose response biochemical high throughput screening assay to identify inhibitors of the C522A mutant p97 ATPase: synthesized compounds. [Related pubchem assays: 1481, 1517, 1551 ]
Transitional endoplasmic reticulum ATPase (Homo sapiens, UniProt P55072, C522A), sequence (P55072 2-806 C522A limits assumed): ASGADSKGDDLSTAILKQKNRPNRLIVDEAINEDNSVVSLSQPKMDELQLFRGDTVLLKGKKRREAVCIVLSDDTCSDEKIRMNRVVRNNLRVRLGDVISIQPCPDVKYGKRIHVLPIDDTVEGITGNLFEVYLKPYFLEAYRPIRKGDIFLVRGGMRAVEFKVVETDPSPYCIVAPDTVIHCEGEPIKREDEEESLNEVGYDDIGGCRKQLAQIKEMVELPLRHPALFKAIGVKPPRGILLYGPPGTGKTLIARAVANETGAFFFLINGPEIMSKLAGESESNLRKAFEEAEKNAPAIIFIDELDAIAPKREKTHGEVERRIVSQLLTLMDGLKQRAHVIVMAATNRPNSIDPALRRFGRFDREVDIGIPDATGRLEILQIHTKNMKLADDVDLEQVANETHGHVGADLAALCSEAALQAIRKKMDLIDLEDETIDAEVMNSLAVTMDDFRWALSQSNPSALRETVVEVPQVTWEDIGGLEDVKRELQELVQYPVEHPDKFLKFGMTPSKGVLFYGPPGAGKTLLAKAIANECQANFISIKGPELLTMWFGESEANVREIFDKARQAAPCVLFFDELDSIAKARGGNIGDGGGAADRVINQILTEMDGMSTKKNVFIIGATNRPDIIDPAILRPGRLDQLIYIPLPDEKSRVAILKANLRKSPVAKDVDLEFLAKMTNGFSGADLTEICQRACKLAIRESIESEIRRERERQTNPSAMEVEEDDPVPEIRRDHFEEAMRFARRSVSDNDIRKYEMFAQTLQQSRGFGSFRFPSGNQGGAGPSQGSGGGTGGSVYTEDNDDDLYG

Compound: Cc1cccc(-n2c(/C=C/c3ccc([N+](=O)[O-])o3)nc3ccccc3c2=O)c1
- EC50 [1]: 5.82 µM (active)
- IC50 (Vero [2]): 10.8 µM (active)
- EC50 (BJ [3]): 5.28 µM (inconclusive)
- EC50 (BJ [4]): 4.86 µM (inconclusive)
- IC50 [5]: > 100 µM (active)
- EC50 [6]: > 99 µM (inactive)
- EC50 [7]: 8.27 µM (active)
- AC50 [8]: 1.72 µM (active)
- EC50 [9]: 0.552 µM (active)
- CC50 (Vero [10]): > 25 µM (active)
- EC50 [11]: 0.61 µM (active)
- EC50 (BJ [12]): 3.69 µM (inconclusive)

Compound: Cc1nnc(NC(=O)c2nc(S(=O)(=O)Cc3ccccc3C)ncc2Cl)s1
- EC50 [13]: 692 µM (active)
- AC50 [14]: 0.812 µM (active)
- AC50 [15]: 57 µM (active)
- AC50 [16]: 14.5 µM (active)
- AC50 [17]: > 380 µM (inactive)
- IC50 [18]: 4.41 µM (active)
- EC50 (Protein RecA): > 380 µM (inactive)

Compound: CCOC(=O)c1nn(-c2ccc(C)cc2)c(=O)c2c(N)scc12
- IC50 [19]: 9.99 µM (active)
- AC50 [17]: 89.9 µM (active)
- IC50 [20]: > 67 µM (not active)
- EC50 (Protein RecA): 11.4 µM (active)

Compound: Cc1coc2c(O)cc3c(c12)OC1(N2CCCCC2)C(=O)NCCCC31 (centres undefined)
- IC50 [21]: > 50 µM (not active)
- EC50 [22]: 11 µM (active)
- IC50 (Nonstructural protein 1): > 100 µM (active)
- IC50 [23]: 35.2 µM (active)
- EC50 [24]: 11.3 µM (active)
- IC50 (Genome polyprotein): 27.4 µM (active)

Compound: Cc1cc(C(=O)COC(=O)c2ccco2)c(C)n1Cc1ccccc1
- EC50 [25]: > 30 µM (not active)

Compound: CCCC[C@H](CN[C@@H](CNC)[C@H](C)CC)NCCC12CCC(CC1)C2
- IC50 [26]: 6.54 µM (active)
- IC50 [27]: > 20 µM (inactive)

Compound: N#Cc1ccc(Nc2nc(-c3ccc(O)cc3O)cs2)cc1
- IC50 [28]: 4.71 µM (active)
- IC50 [29]: > 50 µM (not active)
